In assay [1] the target is T1, SF9 affinity purified rat farnesyl protein transferase (Rattus norvegicus, UniProt Q02293+Q04631).
T1 construct: made in house; host or cells: Sf9 insect cells (baculovirus system inferred from b7)
In words: PFT inhibitory activity (radiolabeled farnesyl pyrophosphate, streptavidin bead assay). The assay is classed as biochemical. Put shortly:
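HEPES pH 7.4 with 5 mM potassium phosphate (also run without), 20 μM ZnCl2, 5 mM DTT, 5 mM MgCl2, 0.1% PEG 8000; [3H]farnesyl pyrophosphate 134 nM and biotinyl-Ahe-TKCVIM peptide 0.2 μM final. Incubated 30 min at 30° C, stopped with acidic magnesium acetate/streptavidin bead buffer; bead-bound radioactivity counted.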

Assay [2] relates to H61 cells: NIH transformed 3T3 H-ras cells. In words: Clonogenic assay (6 well plates, soft agar). The format is cell-based. The note with it: colonies counted after Day 13, read-out: Clonogenic Assay IC50. Put shortly:
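Soft-agar colony formation: cells seeded in 0.3% agar top layer with 20% calf serum over a 0.6% agar base, drug or DMSO added at 4 µL per mL agar/medium. Incubated at 37 °C, 5% CO2; INT (1 mg/mL) added on day 13 to stain colonies.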

The test system of assay [3] is ras farnesylation in ras-transformed cells. The assay can be described thus: Gel shift assay. Conditions: ras-transformed cells, 18-hour incubation; read-out: Gel Shift (μM) MED (minimal effective dose to observe inhibition of ras farnesylation). The format is cell-based. Put shortly: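 Ras-transformed cells (2×10^6 per condition) treated with farnesylation inhibitor at varying concentrations for 18 h. Ras immunoprecipitated from lysates with Y13-259, resolved on 14% SDS gels and detected by pan-ras Western blot with ECL, farnesylated and unfarnesylated ras separating by mobility shift.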

The mark [4] stands for this setting: HEPES buffer pH 7.4, without 5 mM potassium phosphate, read-out: IC50 (μM) Hepes.
The mark [5] stands for this setting: HEPES buffer pH 7.4 containing 5 mM potassium phosphate, read-out: IC50 (μM) 5 mM K3 PO4 -2.

SMILES strings stand for the structures. pIC50: −log10 of the molar value. Where two headings read alike, the source gives them in different places.

T1 sequence (Q02293 whole entry, one chain of several): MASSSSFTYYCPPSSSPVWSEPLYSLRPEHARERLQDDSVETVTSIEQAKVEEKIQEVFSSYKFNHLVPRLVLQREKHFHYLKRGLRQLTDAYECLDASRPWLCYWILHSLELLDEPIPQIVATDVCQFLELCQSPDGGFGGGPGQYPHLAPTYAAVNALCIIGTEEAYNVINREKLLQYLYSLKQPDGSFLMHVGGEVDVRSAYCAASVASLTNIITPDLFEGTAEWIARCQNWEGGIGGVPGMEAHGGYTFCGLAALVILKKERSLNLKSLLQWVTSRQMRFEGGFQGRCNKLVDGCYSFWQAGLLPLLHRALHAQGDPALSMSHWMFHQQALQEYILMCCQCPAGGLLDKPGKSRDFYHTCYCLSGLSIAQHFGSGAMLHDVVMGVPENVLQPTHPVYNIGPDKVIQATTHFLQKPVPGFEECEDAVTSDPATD

As for `CC(CNC(=O)CN(Cc1cccc(Cl)c1)C(=O)[C@H](Cc1c[nH]cn1)NC(=O)OCc1ccccc1)c1ccccc1` (stereo partly drawn) [Example 30, (S)-[1-{(3-Chloro-benzyl)-[(2-phenyl-propylcarbamoyl)-methyl]-carbamoyl}-2-(1H-imidazole-4-yl)-ethyl]-carbamic Acid Benzyl Ester], the IC50 in assay [1] (setting [4]) is 0.78 µM; in assay [1] (setting [5]) it was 0.016 µM. In addition, the negative-log IC50 (pIC50) in assay [2] (312 h) was < 6.00. For the same molecule, the minimal effective concentration in assay [3] was found to be 0.1 µM.
On to `CC(C)(CNC(=O)CN(Cc1ccc(Cl)cc1)C(=O)[C@H](Cc1c[nH]cn1)NC(=O)OCc1ccccc1)c1ccccc1` [Example 31, (S)-[1-{(4-Chloro-benzyl)-[(2-methyl-2-phenyl-propylcarbamoyl)-methyl]-carbamoyl}-2-(1H-imidazole-4-yl)-ethyl]-carbamic Acid Benzyl Ester], for which the IC50 is 0.52 µM in assay [1] (setting [4]) and 0.014 µM in assay [1] (setting [5]). Also, the negative logarithm of the IC50 (pIC50) in assay [2] (312 h) was < 6.00. In addition, in assay [3], the minimal effective concentration amounted to 0.1 µM.
As for `CC(CNC(=O)CN(Cc1ccc(OCc2ccccc2)cc1)C(=O)[C@H](Cc1c[nH]cn1)NC(=O)OCc1ccccc1)c1ccccc1Cl` (stereo partly drawn) [Example 32, (S)-[1-((4-Benzyloxy-benzyl)-{[2-(2-chloro-phenyl)-propylcarbamoyl]-methyl}-carbamoyl)-2-(1H-imidazole-4-yl)-ethyl]-carbamic Acid Benzyl Ester], the IC50 amounted to 0.32 µM in assay [1] (setting [4]) and 0.007 µM in assay [1] (setting [5]). Also, the pIC50 in assay [2] (312 h) is 6.44. Moreover, the minimal effective concentration in assay [3] stood at 0.05 µM.
The like results for `COc1ccccc1CN(CC(=O)NCC(C)c1ccccc1)C(=O)[C@H](Cc1c[nH]cn1)NC(=O)OCc1ccccc1` (stereo partly drawn) [Example 33, (S)-(2-(1H-Imidazole-4-yl)-1-{(2-methoxy-benzyl)-[(2-phenyl-propylcarbamoyl)-methyl]-carbamoyl}-ethyl)-carbamic Acid Benzyl Ester] were, in that order, 0.5 µM, 0.009 µM, 6.44 and 0.05 µM.
`CC(CNC(=O)CN(Cc1ccc(OCc2ccncc2)cc1)C(=O)[C@H](Cc1c[nH]cn1)NC(=O)OCc1ccccc1)c1ccccc1` (stereo partly drawn) [Example 34, (S)-(2-(1H-Imidazole-4-yl)-1-{[(2-phenyl-propyl-carbamoyl)-methyl]-[4-(pyridin-4-ylmethoxy)-benzyl]-carbamoyl}-ethyl)-carbamic Acid Benzyl Aster]: the IC50 in assay [1] (setting [4]) turned out to be 0.097 µM; in assay [1] (setting [5]), 0.002 µM. The negative-log IC50 (pIC50) in assay [2] was 6.85. Also, the minimal effective concentration in assay [3] worked out at 0.05 µM.
Regarding `COc1cccc(CN(CC(=O)NCC(C)c2ccccc2)C(=O)[C@H](Cc2c[nH]cn2)NC(=O)OCc2ccccc2)c1` (stereo partly drawn) [Example 35, (S)-(2-(1H-Imidazole-4-yl)-1-{(3-methoxy-benzyl)-[(2-phenyl-propylcarbamoyl)-methyl]-carbamoyl}-ethyl)-carbamic Acid Benzyl Ester], the IC50 in assay [1] (setting [4]) turned out to be 2.1 µM; in assay [1] (setting [5]), 0.009 µM. Besides, in assay [2] (312 h), the pIC50 was < 6.00. Further, the minimal effective concentration in assay [3] is 0.2 µM.
Take `CC(CNC(=O)CN(Cc1ccc(OCc2cccnc2)cc1)C(=O)[C@H](Cc1c[nH]cn1)NC(=O)OCc1ccccc1)c1ccccc1` (stereo partly drawn) [Example 36, (S)-(2-(1H-Imidazole-4-yl)-1-{[(2-phenyl-propylcarbamoyl)-methyl]-[4-(pyridin-3-ylmethoxy)-benzyl]-carbamoyl}-ethyl)-carbamic Acid Benzyl Ester]: the IC50 in assay [1] (setting [4]) came to 0.45 µM; in assay [1] (setting [5]), 0.007 µM. In addition, the pIC50 in assay [2] (312 h) is 6.49. In addition, the minimal effective concentration in assay [3] was ≥ 0.05 µM.
As to `CC(CNC(=O)CN(Cc1ccc(C(F)(F)F)cc1)C(=O)[C@H](Cc1c[nH]cn1)NC(=O)OCc1ccccc1)c1ccccc1` (stereo partly drawn) [Example 38, (S)-{2-(1H-Imidazole-4-yl)-1-[[(2-phenyl-propylcarbamoyl)-methyl]-(4-trifluoromethyl-benzyl)-carbamoyl]-ethyl}-carbamic Acid Benzyl Ester], the IC50 in assay [1] (setting [4]) came out at 1.6 µM; in assay [1] (setting [5]), 0.013 µM. The pIC50 in assay [2] (312 h) was 6.66. For the same molecule, in assay [3], the minimal effective concentration came to 0.2 µM.
